# pIC50, pKi: −log10 of the molar value. The source made the active and inactive calls. The rule behind the calls is not given here.
# Legend:
# CYP2C9 = CYP2C9 (Homo sapiens, UniProt P11712); assay: Inhibition of CYP2C9 (unknown origin) at 3 uM; type: ADME
# Homo sapiens [1] = species on record: Homo sapiens; assay: Selectivity for human TRPM8 over TRPA1 (unknown origin)
# Hepatocyte = assay: Intrinsic clearance in human hepatocytes assessed per million cells; type: ADME, cell-based
# CYP1A2 = target: T1, CYP1A2 (Homo sapiens, UniProt P05177); assay: Inhibition of CYP1A2 (unknown origin) at 3 uM; type: ADME
# T1 sequence (P05177 whole entry): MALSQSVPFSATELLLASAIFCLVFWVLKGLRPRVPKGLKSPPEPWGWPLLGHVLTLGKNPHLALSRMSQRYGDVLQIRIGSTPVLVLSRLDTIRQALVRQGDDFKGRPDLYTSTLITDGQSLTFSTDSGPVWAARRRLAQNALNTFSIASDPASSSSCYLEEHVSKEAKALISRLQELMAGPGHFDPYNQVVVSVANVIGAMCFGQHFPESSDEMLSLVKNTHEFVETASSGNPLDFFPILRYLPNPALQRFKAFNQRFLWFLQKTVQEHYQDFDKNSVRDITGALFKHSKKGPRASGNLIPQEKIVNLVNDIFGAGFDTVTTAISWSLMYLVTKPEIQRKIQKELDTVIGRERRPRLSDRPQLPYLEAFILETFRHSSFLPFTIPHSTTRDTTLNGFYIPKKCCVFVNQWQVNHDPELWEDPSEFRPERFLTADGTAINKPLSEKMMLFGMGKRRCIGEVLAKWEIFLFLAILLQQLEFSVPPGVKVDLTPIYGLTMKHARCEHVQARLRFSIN
# [2] = Oral bioavailability in rat at 10 mg/kg; type: ADME, organism-based; settings: in vivo
# [3] = Oral absorption in rat at 2 mg/kg; type: ADME, organism-based; settings: in vivo
# [4] = Fraction unbound in rat plasma; type: ADME, cell-free
# Canis familiaris = assay: Unbound clearance in beagle dog at 0.2 mg/kg, iv; type: ADME, organism-based, Canis lupus familiaris; settings: in vivo
# [5] = Oral bioavailability in beagle dog at 20 mg/kg; type: ADME, organism-based, Canis lupus familiaris; settings: in vivo
# [6] = target: T2, Voltage-gated inwardly rectifying potassium channel KCNH2 (Homo sapiens, UniProt Q12809); assay: Inhibition of human ERG
# [7] = Clearance in beagle dog at 0.2 mg/kg, iv; type: ADME, organism-based, Canis lupus familiaris; settings: in vivo
# Liver microsome = assay: Intrinsic clearance in rat liver microsomes; type: ADME
# [8] = Volume of distribution at steady state in rat; type: ADME, organism-based; settings: in vivo, read-out: Vdss
# [9] = Half life in rat; type: ADME, organism-based; settings: in vivo
# Homo sapiens [10] = assay: Toxicity in human assessed as effect on core body temperature up to 900 mg administered as single dose during cold pressor test; type: organism-based; settings: in vivo
# [11] = Intrinsic clearance in human liver microsomes; type: ADME; settings: read-out: CLH
# CYP2D6 = CYP2D6 (Homo sapiens, UniProt P10635); assay: Inhibition of CYP2D6 (unknown origin) at 3 uM; type: ADME
# [12] = Permeability in RRCK cells; type: ADME, cell-based, Canis lupus familiaris, MDCKII-LE; settings: dog, MDCK; read-out: permeability
# [13] = Oral absorption in beagle dog at 20 mg/kg; type: ADME, organism-based, Canis lupus familiaris; settings: in vivo
# [14] = Oral absorption in rat at 10 mg/kg; type: ADME, organism-based; settings: in vivo
# [15] = Lipophilicity, log D of the compound; type: physicochemical; settings: octanol/water
# [16] = Half life in beagle dog at 0.2 mg/kg, iv; type: ADME, organism-based, Canis lupus familiaris; settings: in vivo
# [17] = Efflux ratio in MDCK cells; type: ADME, cell-based, Canis lupus familiaris; settings: dog
# CYP3A4 = CYP3A4 (Homo sapiens, UniProt P08684); assay: Inhibition of CYP3A4 (unknown origin) at 3 uM; type: ADME
# [18] = Clearance in rat; type: ADME, organism-based; settings: in vivo
# [19] = Fraction unbound in guinea pig plasma; type: ADME, cell-free, Cavia porcellus
# [20] = Fraction unbound in dog plasma; type: ADME, cell-free, Canis lupus familiaris
# [21] = Fraction unbound in human plasma; type: ADME, cell-free
# Rattus norvegicus [22] = species on record: Rattus norvegicus; assay: Unbound clearance in rat; type: ADME, organism-based; settings: in vivo
# [23] = Oral bioavailability in rat at 2 mg/kg; type: ADME, organism-based; settings: in vivo
# [24] = target: T3, Transient receptor potential cation channel subfamily M member 8 (Homo sapiens, UniProt Q7Z2W7); assay: Antagonist activity against human TRPM8 by single cell patch clamp electrophysiology
# Rattus norvegicus [25] = species on record: Rattus norvegicus; assay: Drug metabolism in bile-duct cannulated rat assessed as formation of acyl glucuronide formation; type: ADME, organism-based; settings: in vivo
# Homo sapiens [26] = assay: Toxicity in human assessed as induction of nontolerated hot sensation localized to mouth, face, upper body, arms and hands at 900 mg administered as single dose during cold pressor test; type: organism-based; settings: in vivo
# Homo sapiens [27] = species on record: Homo sapiens; assay: Selectivity for human TRPM8 over TRPV1 (unknown origin)
# CYP2C8 = target: T4, CYP2C8 (Homo sapiens, UniProt P10632); assay: Inhibition of CYP2C8 (unknown origin) at 3 uM; type: ADME
# T4 sequence (P10632 whole entry): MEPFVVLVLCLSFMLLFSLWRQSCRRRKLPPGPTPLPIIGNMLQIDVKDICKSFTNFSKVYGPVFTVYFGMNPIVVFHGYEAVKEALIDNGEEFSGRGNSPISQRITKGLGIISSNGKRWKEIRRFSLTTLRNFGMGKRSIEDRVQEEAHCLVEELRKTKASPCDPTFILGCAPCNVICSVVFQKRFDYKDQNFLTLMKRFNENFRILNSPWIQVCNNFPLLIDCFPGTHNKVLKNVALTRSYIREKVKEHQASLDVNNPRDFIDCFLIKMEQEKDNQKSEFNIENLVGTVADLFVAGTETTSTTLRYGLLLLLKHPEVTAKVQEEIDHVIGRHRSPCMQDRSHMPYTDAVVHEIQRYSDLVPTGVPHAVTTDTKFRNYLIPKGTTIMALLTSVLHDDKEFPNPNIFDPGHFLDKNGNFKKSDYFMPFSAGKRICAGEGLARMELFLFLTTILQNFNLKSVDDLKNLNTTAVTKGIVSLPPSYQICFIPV
# [28] = target: T3, Transient receptor potential cation channel subfamily M member 8; assay: Antagonist activity against human recombinant TRPM8 expressed in CHO T-rex cells assessed as inhibition of WS12-induced calcium response pre-incubated for 20 mins before WS12 addition; type: cell-based
# Homo sapiens [29] = assay: Analgesic effect in human at 900 mg administered as single dose by cold pressor test; type: functional, organism-based
# [30] = target: T2, Voltage-gated inwardly rectifying potassium channel KCNH2; assay: Inhibition of dofetilide binding to human ERG
# [31] = Volume of distribution at steady state in beagle dog at 0.2 mg/kg, iv; type: ADME, organism-based, Canis lupus familiaris; settings: in vivo, read-out: Vdss
# Cavia porcellus = species on record: Cavia porcellus; assay: Analgesic effect in guinea pig model of cold-induced bladder contractility assessed as maximum unbound concentration to causing therapeutic efficacy; type: functional
# T2 sequence (Q12809 whole entry): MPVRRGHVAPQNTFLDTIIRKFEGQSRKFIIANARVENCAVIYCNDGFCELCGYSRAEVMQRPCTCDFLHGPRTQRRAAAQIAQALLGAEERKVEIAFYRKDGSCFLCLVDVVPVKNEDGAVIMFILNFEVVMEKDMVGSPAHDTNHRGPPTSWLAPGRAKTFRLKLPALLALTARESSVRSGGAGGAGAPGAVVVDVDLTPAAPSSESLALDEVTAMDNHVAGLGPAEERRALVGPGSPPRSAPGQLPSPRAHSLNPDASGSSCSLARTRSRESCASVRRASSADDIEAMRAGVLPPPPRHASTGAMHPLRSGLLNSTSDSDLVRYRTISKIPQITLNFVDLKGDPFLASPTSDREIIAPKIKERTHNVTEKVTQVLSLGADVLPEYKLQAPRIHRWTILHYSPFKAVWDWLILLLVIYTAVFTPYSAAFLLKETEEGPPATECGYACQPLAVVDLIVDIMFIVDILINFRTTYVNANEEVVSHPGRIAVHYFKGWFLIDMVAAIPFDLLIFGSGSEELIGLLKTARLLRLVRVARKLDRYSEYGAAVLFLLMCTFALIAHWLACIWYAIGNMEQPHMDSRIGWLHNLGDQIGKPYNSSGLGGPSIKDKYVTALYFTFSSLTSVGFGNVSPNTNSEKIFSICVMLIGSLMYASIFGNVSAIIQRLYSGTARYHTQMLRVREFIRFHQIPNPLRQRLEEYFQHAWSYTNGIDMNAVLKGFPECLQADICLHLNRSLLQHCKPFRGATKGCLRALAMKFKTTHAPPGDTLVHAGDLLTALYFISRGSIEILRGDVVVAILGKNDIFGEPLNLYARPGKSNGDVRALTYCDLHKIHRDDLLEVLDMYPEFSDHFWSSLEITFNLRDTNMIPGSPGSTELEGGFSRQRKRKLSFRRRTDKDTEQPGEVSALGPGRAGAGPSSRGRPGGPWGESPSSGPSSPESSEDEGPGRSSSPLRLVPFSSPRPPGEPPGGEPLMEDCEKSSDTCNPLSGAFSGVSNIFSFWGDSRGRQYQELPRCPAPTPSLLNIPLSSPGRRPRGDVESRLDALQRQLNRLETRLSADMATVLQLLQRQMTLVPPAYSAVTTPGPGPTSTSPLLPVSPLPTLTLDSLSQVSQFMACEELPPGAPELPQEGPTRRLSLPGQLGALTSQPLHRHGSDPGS
# T3 sequence (Q7Z2W7 whole entry): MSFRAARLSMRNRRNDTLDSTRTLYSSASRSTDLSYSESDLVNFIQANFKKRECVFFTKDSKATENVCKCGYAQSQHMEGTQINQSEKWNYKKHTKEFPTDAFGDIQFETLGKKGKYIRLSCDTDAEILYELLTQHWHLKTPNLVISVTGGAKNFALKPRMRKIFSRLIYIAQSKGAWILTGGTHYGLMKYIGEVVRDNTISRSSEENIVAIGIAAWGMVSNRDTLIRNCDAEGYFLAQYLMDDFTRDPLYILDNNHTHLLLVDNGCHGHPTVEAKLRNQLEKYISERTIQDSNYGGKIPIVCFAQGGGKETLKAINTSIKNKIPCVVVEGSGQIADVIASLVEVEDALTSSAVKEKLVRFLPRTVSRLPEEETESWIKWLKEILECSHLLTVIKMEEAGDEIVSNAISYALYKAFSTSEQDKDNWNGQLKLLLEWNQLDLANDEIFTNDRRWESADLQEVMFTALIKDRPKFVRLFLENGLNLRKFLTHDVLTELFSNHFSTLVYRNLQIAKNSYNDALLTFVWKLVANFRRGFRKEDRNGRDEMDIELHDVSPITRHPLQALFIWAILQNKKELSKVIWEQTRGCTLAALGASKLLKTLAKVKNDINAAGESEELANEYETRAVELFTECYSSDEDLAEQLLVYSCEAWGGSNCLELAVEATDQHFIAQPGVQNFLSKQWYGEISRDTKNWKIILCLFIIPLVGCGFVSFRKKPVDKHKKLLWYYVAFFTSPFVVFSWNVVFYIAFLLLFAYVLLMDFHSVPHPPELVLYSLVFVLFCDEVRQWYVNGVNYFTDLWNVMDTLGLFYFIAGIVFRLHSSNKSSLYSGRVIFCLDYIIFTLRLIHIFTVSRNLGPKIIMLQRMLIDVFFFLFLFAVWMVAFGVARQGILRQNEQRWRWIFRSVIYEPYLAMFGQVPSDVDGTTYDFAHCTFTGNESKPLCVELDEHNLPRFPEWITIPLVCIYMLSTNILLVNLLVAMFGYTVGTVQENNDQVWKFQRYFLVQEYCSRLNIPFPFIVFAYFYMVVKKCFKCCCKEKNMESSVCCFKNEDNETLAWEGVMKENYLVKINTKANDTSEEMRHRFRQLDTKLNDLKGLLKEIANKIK
# Sequence of CYP3A4 (P08684 whole entry): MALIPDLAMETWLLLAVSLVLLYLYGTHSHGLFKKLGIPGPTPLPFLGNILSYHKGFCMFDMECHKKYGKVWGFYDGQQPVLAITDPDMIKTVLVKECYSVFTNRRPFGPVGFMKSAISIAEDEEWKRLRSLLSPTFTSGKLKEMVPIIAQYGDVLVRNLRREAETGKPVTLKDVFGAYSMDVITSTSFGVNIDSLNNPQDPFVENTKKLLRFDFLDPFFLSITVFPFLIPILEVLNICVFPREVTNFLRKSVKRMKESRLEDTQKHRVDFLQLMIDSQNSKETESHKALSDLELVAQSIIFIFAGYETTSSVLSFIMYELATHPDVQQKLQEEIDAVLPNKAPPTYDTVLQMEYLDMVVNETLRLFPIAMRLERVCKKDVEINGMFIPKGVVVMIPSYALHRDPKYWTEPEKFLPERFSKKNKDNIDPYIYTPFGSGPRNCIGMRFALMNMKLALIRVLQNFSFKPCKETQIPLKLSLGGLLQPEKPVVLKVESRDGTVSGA
# Sequence of CYP2D6 (P10635 whole entry): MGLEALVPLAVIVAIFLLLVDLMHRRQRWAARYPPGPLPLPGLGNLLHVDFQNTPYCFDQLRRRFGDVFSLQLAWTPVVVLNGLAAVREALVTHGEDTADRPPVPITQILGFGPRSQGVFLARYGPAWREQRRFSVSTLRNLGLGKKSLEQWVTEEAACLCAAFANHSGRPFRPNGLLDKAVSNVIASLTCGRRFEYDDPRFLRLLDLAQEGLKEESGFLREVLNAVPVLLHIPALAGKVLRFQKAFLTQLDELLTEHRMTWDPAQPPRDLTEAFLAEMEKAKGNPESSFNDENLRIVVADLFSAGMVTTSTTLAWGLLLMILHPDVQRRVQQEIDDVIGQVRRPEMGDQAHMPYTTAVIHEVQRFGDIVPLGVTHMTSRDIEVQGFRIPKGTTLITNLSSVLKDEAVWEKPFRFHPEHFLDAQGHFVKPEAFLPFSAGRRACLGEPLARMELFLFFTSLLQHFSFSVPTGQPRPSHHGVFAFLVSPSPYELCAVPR
# Sequence of CYP2C9 (P11712 whole entry): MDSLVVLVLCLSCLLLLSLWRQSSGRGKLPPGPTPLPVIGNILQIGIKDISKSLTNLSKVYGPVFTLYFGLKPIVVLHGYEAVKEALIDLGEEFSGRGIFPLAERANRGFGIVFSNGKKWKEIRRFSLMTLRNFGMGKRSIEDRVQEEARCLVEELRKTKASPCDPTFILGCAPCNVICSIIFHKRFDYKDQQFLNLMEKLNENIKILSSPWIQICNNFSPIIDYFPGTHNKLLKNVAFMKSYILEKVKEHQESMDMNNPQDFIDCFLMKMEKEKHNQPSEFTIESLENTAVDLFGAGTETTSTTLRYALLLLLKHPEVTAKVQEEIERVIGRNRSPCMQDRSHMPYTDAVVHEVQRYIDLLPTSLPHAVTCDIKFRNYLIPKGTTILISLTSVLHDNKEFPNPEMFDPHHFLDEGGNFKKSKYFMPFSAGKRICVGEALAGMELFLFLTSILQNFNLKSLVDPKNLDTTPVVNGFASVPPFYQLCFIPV
smiles,measurement,setting,value
C[C@H](c1ccc(F)cc1)N(Cc1cccc(C(=O)O)c1)C(=O)c1cnc2ccccc2c1 [PF-05105679],inhibition at 3 µM,CYP2C9,0%
same,Selectivity ratio,Homo sapiens [1],> 100
same,hepatocyte intrinsic clearance,Hepatocyte,< 15 µL/min/million cells
same,inhibition at 3 µM,CYP1A2,0%
same,bioavailability,[2],62%
same,Fa,[3],46%
same,fraction unbound,[4],0.033
same,CL free,Canis familiaris,462 mL/min/kg
same,bioavailability,[5],92%
same,IC50,[6],> 30 µM
same,clearance,[7],31 mL/min/kg
same,microsomal CLint,Liver microsome,17 µL/min/mg
same,Vd,[8],6.2 L/kg
same,half-life,[9],216 min
same,Activity,Homo sapiens [10],Non-toxic
same,microsomal CLint,[11],< 8 µL/min/mg
same,inhibition at 3 µM,CYP2D6,0%
same,Papp,[12],6.8 ×10⁻⁶ cm/s
same,Fa,[13],100%
same,Fa,[14],100%
same,logD,[15],1
same,half-life,[16],234 min
same,efflux ratio,[17],4.8
same,inhibition at 3 µM,CYP3A4,0%
same,clearance,[18],19.8 mL/min/kg
same,fraction unbound,[19],0.07
same,fraction unbound,[20],0.067
same,fraction unbound,[21],0.012
same,CL free,Rattus norvegicus [22],618 mL/min/kg
same,bioavailability,[23],29%
same,pIC50,[24],6.99
same,Drug metabolism,Rattus norvegicus [25],metabolite_detected
same,Activity,Homo sapiens [26],Toxic
same,Selectivity ratio,Homo sapiens [27],> 100
same,inhibition at 3 µM,CYP2C8,0%
same,pIC50,[28],6.74
same,Activity,Homo sapiens [29],Active
same,pKi,[30],< 4.80
same,Vd,[31],7.4 L/kg
same,fCmax,Cavia porcellus,254 nM

# From ChEMBL document CHEMBL3576831, “Discovery of a Selective TRPM8 Antagonist with Clinical Efficacy in Cold-Related Pain” (ACS Med Chem Lett, 2015)
